Reference: US6355799B1, “Substituted benzene compounds, process for their preparation, and herbicidal and defoliant compositions containing them” (ISK Americas Incorporated, priority 1997, dated 2002)

Legend:
Assay type in all cases: in vivo
[1] = test system: redroot pigweed (Amaranthus retroflexus, AMARE); assay: Pre-emerge test, greenhouse herbicide activity screening; settings: pre-emerge, 14 days after application
Procedure, shortened: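 Compounds in acetone were track-sprayed at 187 l/ha, 15–1000 g ai/ha, onto sandy loam pots. Pre-emerge seeds were sown one day before spraying, with surface watering afterwards. Post-emerge plants were at the 2–3 leaf stage and sprayed with 0.25% v/v non-ionic surfactant. Injury was rated 0–100 at 14 days.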

[2] = test system: upland rice (Oryza sp., var. Tebonnet, RICE); assay: Post-emerge test, crop safety; settings: post-emerge, 14 days after application, rating scale 0-100
Procedure, shortened: (§1)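 Applied at 15–1000 g ai/ha from acetone in 187 l/ha spray volume. Post-emergence applications included 0.25% v/v non-ionic surfactant and reached plants sown 8–21 days before. Pre-emergence applications were incorporated by surface watering. Efficacy or crop damage was rated on a 0–100 scale after 14 days.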

[3] = test system: field corn (Zea mays L., var. Dekalb 535, CORN); assay: Post-emerge test, crop safety; settings: post-emerge, 14 days after application, rating scale 0-100
Procedure, shortened: as §1

[4] = test system: upland rice (Oryza sp., var. Tebonnet, RICE); assay: Pre-emerge test, crop safety; settings: pre-emerge, 14 days after application; for phytotoxicity rating RICE (crop damage): scale 0-100; for phytotoxicity rating RICE: rating scale 0-100
Procedure, shortened: (§2)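 Rating: 0–100 visual injury, 14 DAA. Application: acetone, 187 l/ha, 15–1000 g ai/ha, flat-fan track sprayer with nozzle 40–45 cm above soil or canopy. Post-emerge runs used 0.25% v/v surfactant on 2–3 leaf plants.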

[5] = test system: field corn (Zea mays L., var. Dekalb 535, CORN); assay: Pre-emerge test, crop safety; settings: pre-emerge, 14 days after application; for phytotoxicity rating CORN (crop damage): scale 0-100; for phytotoxicity rating CORN: rating scale 0-100
Procedure, shortened: as §2

[6] = test system: green foxtail (Setaria viridis, SETVI); assay: Post-emerge test, greenhouse herbicide activity screening; settings: post-emerge, 14 days after application, rating scale 0-100
Procedure, shortened: (§3)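 Each test used a mechanized track sprayer delivering 187 l/ha of acetone solution at 15–1000 g ai/ha. Post-emerge foliage at 2–3 leaves was treated with added 0.25% v/v non-ionic surfactant and bottom-watered only. Injury was assessed on day 14, where 100 means total kill.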

[7] = test system: sicklepod (Cassia obtusifolia, CASOB); assay: as above; settings: post-emerge, 14 days after application, rating scale 0-100
Procedure, shortened: as §3

[8] = test system: ivyleaf morningglory (Ipomoea hederacea, IPOHE); assay: as above; settings: post-emerge, 14 days after application, rating scale 0-100
Procedure, shortened: as §3

[9] = test system: velvetleaf (Abutilon theophrasti, ABUTH); assay: as above; settings: post-emerge, 14 days after application, rating scale 0-100
Procedure, shortened: as §3

[10] = test system: redroot pigweed (Amaranthus retroflexus, AMARE); assay: as above; settings: post-emerge, 14 days after application
Procedure, shortened: as §3

[11] = test system: lambsquarters (Chenopodium album, CHEAL); assay: as above; settings: post-emerge, 14 days after application, rating scale 0-100
Procedure, shortened: as §3

[12] = test system: barnyardgrass (Echinochloa crus-galli, ECHCG); assay: as above; settings: post-emerge, 14 days after application, rating scale 0-100
Procedure, shortened: as §3

[13] = test system: large crabgrass (Digitaria sanguinalis, DIGSA); assay: as above; settings: post-emerge, 14 days after application, rating scale 0-100
Procedure, shortened: as §3

[14] = test system: green foxtail (Setaria viridis, SETVI); assay: Pre-emerge test, greenhouse herbicide activity screening; settings: pre-emerge, 14 days after application
Procedure, shortened: as §1

[15] = test system: sicklepod (Cassia obtusifolia, CASOB); assay: as above; settings: pre-emerge, 14 days after application
Procedure, shortened: as §1

[16] = test system: ivyleaf morningglory (Ipomoea hederacea, IPOHE); assay: as above; settings: pre-emerge, 14 days after application
Procedure, shortened: as §1

[17] = test system: velvetleaf (Abutilon theophrasti, ABUTH); assay: as above; settings: pre-emerge, 14 days after application
Procedure, shortened: as §1

[18] = test system: johnsongrass (Sorghum halepense, SORHA); assay: as above; settings: pre-emerge, 14 days after application
Procedure, shortened: as §1

[19] = test system: lambsquarters (Chenopodium album, CHEAL); assay: as above; settings: pre-emerge, 14 days after application
Procedure, shortened: as §1

[20] = test system: barnyardgrass (Echinochloa crus-galli, ECHCG); assay: as above; settings: pre-emerge, 14 days after application
Procedure, shortened: as §1

[21] = test system: large crabgrass (Digitaria sanguinalis, DIGSA); assay: as above; settings: pre-emerge, 14 days after application
Procedure, shortened: as §1

[22] = 250 g ai/ha, rating scale 0-100

SMILES: COc1c(Cl)cc(F)c(-n2c(=O)cc(C(F)(F)F)n(C)c2=O)c1NC(=O)COc1ccc(F)cc1 [2-133]
- phytotoxicity rating AMARE ([1]; 63 g ai/ha, scale 0-100): 100
- phytotoxicity rating AMARE ([1]; 250 g ai/ha, scale 0-100): 100
- RICE phytotoxicity rating (crop damage) ([2]; 63 g ai/ha): 80
- RICE phytotoxicity rating (crop damage) ([2]; 250 g ai/ha): 95
- CORN phytotoxicity rating (crop damage) ([3]; 63 g ai/ha): 70
- CORN phytotoxicity rating (crop damage) ([3]; 250 g ai/ha): 95
- phytotoxicity rating RICE (crop damage) ([4]; 63 g ai/ha): 70
- phytotoxicity rating RICE (crop damage) ([4]; 250 g ai/ha): 93
- phytotoxicity rating CORN (crop damage) ([5]; 63 g ai/ha): 20
- phytotoxicity rating CORN (crop damage) ([5]; 250 g ai/ha): 80
- SETVI phytotoxicity rating ([6]; 63 g ai/ha): 70
- SETVI phytotoxicity rating ([6]; 250 g ai/ha): 75
- CASOB phytotoxicity rating ([7]; 63 g ai/ha): 80
- CASOB phytotoxicity rating ([7]; 250 g ai/ha): 100
- IPOHE phytotoxicity rating ([8]; 63 g ai/ha): 90
- IPOHE phytotoxicity rating ([8]; 250 g ai/ha): 100
- ABUTH phytotoxicity rating ([9]; 63 g ai/ha): 100
- ABUTH phytotoxicity rating ([9]; 250 g ai/ha): 100
- AMARE phytotoxicity rating ([10]; 63 g ai/ha, rating scale 0-100): 100
- AMARE phytotoxicity rating [10, 22]: 100
- CHEAL phytotoxicity rating ([11]; 63 g ai/ha): 100
- CHEAL phytotoxicity rating ([11]; 250 g ai/ha): 100
- ECHCG phytotoxicity rating ([12]; 63 g ai/ha): 50
- ECHCG phytotoxicity rating ([12]; 250 g ai/ha): 85
- DIGSA phytotoxicity rating ([13]; 63 g ai/ha): 30
- DIGSA phytotoxicity rating ([13]; 250 g ai/ha): 70
- phytotoxicity rating SETVI ([14]; 63 g ai/ha, scale 0-100): 95
- phytotoxicity rating SETVI ([14]; 250 g ai/ha, scale 0-100): 100
- phytotoxicity rating CASOB ([15]; 63 g ai/ha, scale 0-100): 55
- phytotoxicity rating CASOB ([15]; 250 g ai/ha, scale 0-100): 100
- phytotoxicity rating IPOHE ([16]; 63 g ai/ha, scale 0-100): 80
- phytotoxicity rating IPOHE ([16]; 250 g ai/ha, scale 0-100): 100
- phytotoxicity rating ABUTH ([17]; 63 g ai/ha, scale 0-100): 100
- phytotoxicity rating ABUTH ([17]; 250 g ai/ha, scale 0-100): 100
- phytotoxicity rating SORHA ([18]; 63 g ai/ha, scale 0-100): 75
- phytotoxicity rating SORHA ([18]; 250 g ai/ha, scale 0-100): 100
- phytotoxicity rating CHEAL ([19]; 63 g ai/ha, scale 0-100): 100
- phytotoxicity rating CHEAL ([19]; 250 g ai/ha, scale 0-100): 100
- phytotoxicity rating ECHCG ([20]; 63 g ai/ha, scale 0-100): 65
- phytotoxicity rating ECHCG ([20]; 250 g ai/ha, scale 0-100): 95
- phytotoxicity rating DIGSA ([21]; 63 g ai/ha, scale 0-100): 95
- phytotoxicity rating DIGSA ([21]; 250 g ai/ha, scale 0-100): 100

SMILES: CCOC(=O)N(C)C(=O)NNc1c(OC)c(Cl)cc(F)c1-n1c(=O)cc(C(F)(F)F)n(C)c1=O [15-9]
- phytotoxicity rating AMARE ([1]; 63 g ai/ha, rating scale 0-100): 100
- phytotoxicity rating AMARE [1, 22]: 100
- Post-emerge Herbicidal Activity RICE (crop damage rating) ([2]; 63 g ai/ha): 50
- Post-emerge Herbicidal Activity RICE (crop damage rating) ([2]; 250 g ai/ha): 90
- Post-emerge Herbicidal Activity CORN (crop damage rating) ([3]; 63 g ai/ha): 30
- Post-emerge Herbicidal Activity CORN (crop damage rating) ([3]; 250 g ai/ha): 70
- phytotoxicity rating RICE ([4]; 63 g ai/ha): 95
- phytotoxicity rating RICE ([4]; 250 g ai/ha): 100
- phytotoxicity rating CORN ([5]; 63 g ai/ha): 85
- phytotoxicity rating CORN ([5]; 250 g ai/ha): 98
- Post-emerge Herbicidal Activity SETVI (phytotoxicity rating) ([6]; 63 g ai/ha): 0
- Post-emerge Herbicidal Activity SETVI (phytotoxicity rating) ([6]; 250 g ai/ha): 80
- Post-emerge Herbicidal Activity CASOB (phytotoxicity rating) ([7]; 63 g ai/ha): 10
- Post-emerge Herbicidal Activity CASOB (phytotoxicity rating) ([7]; 250 g ai/ha): 60
- Post-emerge Herbicidal Activity IPOHE (phytotoxicity rating) ([8]; 63 g ai/ha): 100
- Post-emerge Herbicidal Activity IPOHE (phytotoxicity rating) ([8]; 250 g ai/ha): 85
- Post-emerge Herbicidal Activity ABUTH (phytotoxicity rating) ([9]; 63 g ai/ha): 80
- Post-emerge Herbicidal Activity ABUTH (phytotoxicity rating) ([9]; 250 g ai/ha): 100
- Post-emerge Herbicidal Activity AMARE (phytotoxicity rating) ([10]; 63 g ai/ha, rating scale 0-100 (0 no damage, 100 complete death)): 10
- Post-emerge Herbicidal Activity AMARE (phytotoxicity rating) [10, 22]: 95
- Post-emerge Herbicidal Activity ECHCG (phytotoxicity rating) ([12]; 63 g ai/ha): 0
- Post-emerge Herbicidal Activity ECHCG (phytotoxicity rating) ([12]; 250 g ai/ha): 90
- Post-emerge Herbicidal Activity DIGSA (phytotoxicity rating) ([13]; 63 g ai/ha): 0
- Post-emerge Herbicidal Activity DIGSA (phytotoxicity rating) ([13]; 250 g ai/ha): 80
- phytotoxicity rating SETVI ([14]; 63 g ai/ha, rating scale 0-100): 100
- phytotoxicity rating SETVI [14, 22]: 100
- phytotoxicity rating CASOB ([15]; 63 g ai/ha, rating scale 0-100): 90
- phytotoxicity rating CASOB [15, 22]: 100
- phytotoxicity rating IPOHE ([16]; 63 g ai/ha, rating scale 0-100): 99
- phytotoxicity rating IPOHE [16, 22]: 100
- phytotoxicity rating ABUTH ([17]; 63 g ai/ha, rating scale 0-100): 100
- phytotoxicity rating ABUTH [17, 22]: 100
- phytotoxicity rating SORHA ([18]; 63 g ai/ha, rating scale 0-100): 100
- phytotoxicity rating SORHA [18, 22]: 100
- phytotoxicity rating CHEAL ([19]; 63 g ai/ha, rating scale 0-100): 100
- phytotoxicity rating CHEAL [19, 22]: 100
- phytotoxicity rating ECHCG ([20]; 63 g ai/ha, rating scale 0-100): 99
- phytotoxicity rating ECHCG [20, 22]: 100
- phytotoxicity rating DIGSA ([21]; 63 g ai/ha, rating scale 0-100): 90
- phytotoxicity rating DIGSA [21, 22]: 100
